Source: ChEMBL document CHEMBL1130850, “Asymmetric synthesis and anti-HIV activity of L-carbocyclic 2',3'-didehydro-2',3'-dideoxyadenosine” (Bioorg Med Chem Lett, 1998)
Blank lines part the entries; values can stand above or below the compound they belong to.

Legend:
[1] = test system: CCRF-CEM; experiment: Compound was evaluated for its cytotoxicity against CEM cells.; type: functional, cell-based; settings: Homo sapiens
[2] = Compound was evaluated for its cytotoxicity against peripheral blood mononuclear (PBM) cells.; type: functional, cell-based; settings: Homo sapiens
[3] = Compound was evaluated for its anti-HIV activity in vitro in peripheral blood mononuclear (PBM) cells; type: functional; settings: Homo sapiens
[4] = test system: Vero; experiment: Compound was evaluated for its cytotoxicity against vero cells.; type: functional, cell-based; settings: Chlorocebus sabaeus
[5] = test system: CCRF-CEM; experiment: Compound was evaluated for its cytotoxicity expressed as IC50 against CEM cells.; type: functional, cell-based; settings: Homo sapiens

EC50 [3]: > 100 µM
SMILES: OCC1C=CC(n2cnc3c(S)ncnc32)C1 (stereo unspecified)
IC50 [1]: > 100 µM
IC50 [2]: > 100 µM
IC50 [4]: > 100 µM

SMILES: Nc1ncnc2c1ncn2C1C=CC(CO)C1 (stereo unspecified)
IC50 [5]: > 100 µM
IC50 [2]: > 100 µM
EC50 [3]: 2.4 µM
EC90 [3]: 11.7 µM
IC50 [4]: > 100 µM

SMILES: Cc1cn([C@H]2C[C@H](N=[N+]=[N-])[C@@H](CO)O2)c(=O)[nH]c1=O [ZIDOVUDINE]
IC50 [2]: > 100 µM
EC50 [3]: 0.004 µM
